Values joined by “and” are separate entries in the source; they are usually repeats but may differ in a detail not shown here. Equal entries are not always repeated. Inconclusive results and toxic doses are left out.
Test system: BDF1 mice, P388 leukemia ip, median survival T/C
Assay: NCI In Vivo Anticancer Drug Screen. Data for tumor model P388 Leukemia (intraperitoneal) in B6D2F1 (BDF1) mice
Settings: endpoint: median survival time, higher = longer survival
Procedure, shortened: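 Antitumour effect was judged in vivo: survival in drug-treated mice, normalised to that of vehicle-dosed controls, gives the reported T/C.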

O=P1(N(CCCl)CCCl)NCCCO1 (configuration not stated)
T/C (dose: 6.25 mg/kg/injection, schedule: Q01DX009 (ip), vehicle: saline): 120 % of control | T/C (dose: 10.0 mg/kg/injection, schedule: Q01DX010 (ip), vehicle: water): 227 % of control | T/C (dose: 10.0 mg/kg/injection, schedule: Q01DX015 (ip), vehicle: saline): 167 % of control | T/C (dose: 11.25 mg/kg/injection, schedule: Q01DX010 (ip), vehicle: saline): 186 % of control | T/C (dose: 12.5 mg/kg/injection, schedule: Q01DX009 (ip), vehicle: saline): 124 % of control and 206 % of control | T/C (dose: 15.0 mg/kg/injection, schedule: Q01DX015 (ip), vehicle: saline): 202 % of control and 216 % of control | T/C (dose: 20.0 mg/kg/injection, schedule: Q01DX010 (ip), vehicle: saline): 235 % of control and 259 % of control and 280 % of control | T/C (dose: 20.0 mg/kg/injection, schedule: Q01DX010 (ip), vehicle: water): 272 % of control | T/C (dose: 20.0 mg/kg/injection, schedule: Q01DX015 (ip), vehicle: saline): 245 % of control and 219 % of control | T/C (dose: 25.0 mg/kg/injection, schedule: Q01DX009 (ip), vehicle: saline): 257 % of control and 165 % of control | T/C (dose: 25.0 mg/kg/injection, schedule: Q01DX015 (ip), vehicle: saline): 272 % of control and 349 % of control | T/C (dose: 25.0 mg/kg/injection, schedule: Q04DX003 (ip), vehicle: saline): 150 % of control and 179 % of control | T/C (dose: 25.0 mg/kg/injection, schedule: Q04DX003 (ip), vehicle: water): 283 % of control | T/C (dose: 30.0 mg/kg/injection, schedule: Q01DX010 (ip), vehicle: saline): 272 % of control and 300 % of control (2×) | T/C (dose: 30.0 mg/kg/injection, schedule: Q01DX015 (ip), vehicle: saline): 356 % of control and 423 % of control | T/C (dose: 31.3 mg/kg/injection, schedule: Q01DX001 (ip), vehicle: saline): 163 % of control | T/C (dose: 37.5 mg/kg/injection, schedule: Q01DX001 (ip), vehicle: saline): 153 % of control | T/C (dose: 50.0 mg/kg/injection, schedule: Q01DX001 (ip), vehicle: saline): 159 % of control and 175 % of control | T/C (dose: 50.0 mg/kg/injection, schedule: Q01DX009 (ip), vehicle: saline): 250 % of control and 111 % of control and 112 % of control | T/C (dose: 50.0 mg/kg/injection, schedule: Q04DX003 (ip), vehicle: saline): 258 % of control and 192 % of control | T/C (dose: 50.0 mg/kg/injection, schedule: Q04DX003 (ip), vehicle: water): 111 % of control | T/C (dose: 50.0 mg/kg/injection, schedule: Q08DX002 (ip), vehicle: saline): 218 % of control | T/C (dose: 62.5 mg/kg/injection, schedule: Q01DX001 (ip), vehicle: saline): 190 % of control | T/C (dose: 70.0 mg/kg/injection, schedule: Q04DX003 (ip), vehicle: saline): 258 % of control and 98 % of control | T/C (dose: 75.0 mg/kg/injection, schedule: Q04DX003 (ip), vehicle: saline): 557 % of control | T/C (dose: 86.4 mg/kg/injection, schedule: Q01DX001 (ip), vehicle: saline): 234 % of control and 117 % of control and 193 % of control | T/C (dose: 89.0 mg/kg/injection, schedule: Q01DX001 (ip), vehicle: saline): 197 % of control | T/C (dose: 100.0 mg/kg/injection, schedule: Q01DX009 (ip), vehicle: saline): 100 % of control and 112 % of control and 113 % of control | T/C (dose: 100.0 mg/kg/injection, schedule: Q04DX003 (ip), vehicle: water): 91 % of control | T/C (dose: 100.0 mg/kg/injection, schedule: Q08DX002 (ip), vehicle: saline): 267 % of control | T/C (dose: 125.0 mg/kg/injection, schedule: Q01DX001 (ip), vehicle: saline): 293 % of control | T/C (dose: 144.0 mg/kg/injection, schedule: Q01DX001 (ip), vehicle: saline): 297 % of control and 541 % of control and 198 % of control | T/C (dose: 180.0 mg/kg/injection, schedule: Q01DX001 (ip), vehicle: water): 244 % of control | T/C (dose: 200.0 mg/kg/injection, schedule: Q04DX003 (ip), vehicle: saline): 103 % of control | T/C (dose: 200.0 mg/kg/injection, schedule: Q08DX002 (ip), vehicle: saline): 270 % of control | T/C (dose: 240.0 mg/kg/injection, schedule: Q01DX001 (ip), vehicle: saline): 290 % of control and 544 % of control | T/C (dose: 300.0 mg/kg/injection, schedule: Q01DX001 (ip), vehicle: water): 268 % of control | T/C (dose: 400.0 mg/kg/injection, schedule: Q08DX002 (ip), vehicle: saline): 88 % of control | T/C (dose: 500.0 mg/kg/injection, schedule: Q01DX001 (ip), vehicle: water): 252 % of control | T/C (dose: 600.0 mg/kg/injection, schedule: Q01DX001 (ip), vehicle: saline): 54 % of control

c1ccc2c(c1)Sc1ccccc1N2CC1CCCN2CCCCC12 (configuration not stated)
T/C (dose: 12.5 mg/kg/injection, schedule: Q01DX001 (ip), vehicle: Klucel (hydroxypropylcellulose) (HPC)): 106 % of control | T/C (dose: 25.0 mg/kg/injection, schedule: Q01DX001 (ip), vehicle: Klucel (hydroxypropylcellulose) (HPC)): 100 % of control | T/C (dose: 50.0 mg/kg/injection, schedule: Q01DX001 (ip), vehicle: Klucel (hydroxypropylcellulose) (HPC)): 93 % of control

CN=c1ccc2nc3ccc(N)cc3sc-2c1
T/C (dose: 50.0 mg/kg/injection, schedule: Q01DX005 (ip), vehicle: saline with Tween-80): 103 % of control

COC(=O)CCc1c[nH]c2ccc(N(CCCl)CCCl)cc12
T/C (dose: 0.03 mg/kg/injection, schedule: Q04DX003 (ip), vehicle: saline with Tween-80): 105 % of control | T/C (dose: 0.04 mg/kg/injection, schedule: Q01DX009 (ip), vehicle: saline with Tween-80): 122 % of control | T/C (dose: 0.1 mg/kg/injection, schedule: Q01DX009 (ip), vehicle: saline with Tween-80): 154 % of control and 163 % of control | T/C (dose: 0.16 mg/kg/injection, schedule: Q04DX003 (ip), vehicle: saline with Tween-80): 113 % of control | T/C (dose: 0.2 mg/kg/injection, schedule: Q01DX009 (ip), vehicle: saline with Tween-80): 172 % of control | T/C (dose: 0.25 mg/kg/injection, schedule: Q04DX003 (ip), vehicle: saline with Tween-80): 166 % of control | T/C (dose: 0.3 mg/kg/injection, schedule: Q01DX009 (ip), vehicle: saline with Tween-80): 155 % of control and 181 % of control | T/C (dose: 0.5 mg/kg/injection, schedule: Q04DX003 (ip), vehicle: saline with Tween-80): 170 % of control | T/C (dose: 0.63 mg/kg/injection, schedule: Q04DX003 (ip), vehicle: saline with Tween-80): 113 % of control | T/C (dose: 0.8 mg/kg/injection, schedule: Q01DX009 (ip), vehicle: saline with Tween-80): 166 % of control | T/C (dose: 1.0 mg/kg/injection, schedule: Q04DX003 (ip), vehicle: saline with Tween-80): 241 % of control | T/C (dose: 1.25 mg/kg/injection, schedule: Q01DX009 (ip), vehicle: saline with Tween-80): 196 % of control and 212 % of control | T/C (dose: 1.3 mg/kg/injection, schedule: Q04DX003 (ip), vehicle: saline with Tween-80): 205 % of control | T/C (dose: 2.0 mg/kg/injection, schedule: Q04DX003 (ip), vehicle: saline with Tween-80): 265 % of control and 217 % of control | T/C (dose: 2.5 mg/kg/injection, schedule: Q01DX009 (ip), vehicle: saline with Tween-80): 250 % of control | T/C (dose: 3.0 mg/kg/injection, schedule: Q04DX003 (ip), vehicle: saline with Tween-80): 260 % of control and 290 % of control | T/C (dose: 4.4 mg/kg/injection, schedule: Q04DX003 (ip), vehicle: saline with Tween-80): 280 % of control and 300 % of control | T/C (dose: 4.5 mg/kg/injection, schedule: Q04DX003 (ip), vehicle: saline with Tween-80): 260 % of control | T/C (dose: 6.7 mg/kg/injection, schedule: Q04DX003 (ip), vehicle: saline with Tween-80): 300 % of control | T/C (dose: 6.75 mg/kg/injection, schedule: Q04DX003 (ip), vehicle: saline with Tween-80): 260 % of control | T/C (dose: 10.0 mg/kg/injection, schedule: Q04DX003 (ip), vehicle: saline with Tween-80): 200 % of control | T/C (dose: 15.0 mg/kg/injection, schedule: Q04DX003 (ip), vehicle: saline with Tween-80): 120 % of control | T/C (dose: 40.0 mg/kg/injection, schedule: Q04DX003 (ip), vehicle: saline with Tween-80): 272 % of control

Reference: PubChem BioAssay AID328 (DTP/NCI, 2004)
